PMC10744391, “Sulfated Triterpene Glycosides from the Far Eastern Sea Cucumber Cucumaria djakonovi: Djakonoviosides C1, D1, E1, and F1; Cytotoxicity against Human Breast Cancer Cell Lines; Quantitative Structure–Activity Relationships” (Marine Drugs, 2023)
“Also recorded” adds a separate entry of the source. Structures can show the parent of a compound that is named as a salt. Where two headings read alike, the source gives them in different places.

Columns and labels:
Assay type in all cases: cell-based
[1] = in vitro; details: human
[2] = system: T-47D human breast cancer cell line; test: cells; details: for IC50: read-out: Cytotoxicity, IC50, T-47D; for Selectivity Index (SI), T-47D: ratio of IC50 for healthy (MCF-10A) and cancer cells
[3] = system: triple-negative MDA-MB-231 human breast cancer cell line; test: cells; details: for IC50: read-out: Cytotoxicity, IC50, MDA-MB-231; for Selectivity Index (SI), MDA-MB-231: ratio of IC50 for healthy (MCF-10A) and cancer cells
[4] = system: MCF-7 human breast cancer cell line; test: cells; details: for IC50: read-out: Cytotoxicity, IC50, MCF-7; for Selectivity Index (SI), MCF-7: ratio of IC50 for healthy (MCF-10A) and cancer cells
[5] = system: human erythrocytes; test: Hemolytic activity against human erythrocytes; details: for HC50: Erythrocyte, read-out: ED50, Erythrocytes (hemolytic activity); for hemolytic activity (in words): concentration range up to 50 µM
Method: Human blood (B(III) Rh+) was used to obtain erythrocytes by centrifuging 450× g three times for 5 min with phosphate-buffered saline (PBS) (pH 7.4) at 4 °C on centrifuge LABOFUGE 400R (Heraeus, Hanau, Germany). Ice-cold PBS (pH 7.4) was used for resuspension of erythrocytes residue to a final optical density of 1.5 at 700 nm, which was kept on ice. Then, 20 µL of tested compound solution or control—djakonovioside A1 [5]—were added to 180 µL of erythrocyte suspension in V-bottom 96-well plates and exposed for 1 h at 37 °C. Next, centrifugation at 900× g for 10 min on laboratory centrifuge LMC-3000 (Biosan, Riga, Latvia), led to layers’ separation, and 100 µL of supernatant was carefully decanted and transferred into new flat-plate each. The values of erythrocyte lysis were measured on microplate photometer Multiskan FC (Thermo Fisher Scientific, Waltham, MA, USA) at λ = 570 nm as hemoglobin concentration in supernatant. The effective dose, causing lysis of 50% erythrocytes (ED50), was calculated with SigmaPlot 14.0 software. All the experiments were carried out in triple repetitions, p ≤ 0.05.

[6] = human erythrocytes, 1 h at 37 °C, dose causing lysis of 50% erythrocytes

For `COC1C(O)C(CO)OC(OC2C(O)C(CO)OC(OC3C(C)OC(OC4C(OC5CCC6(C)C7CCC89C(=O)OC(C)(CC=CC(C)(C)O)C8C(OC(C)=O)CC9(C)C7=CCC6C5(C)C)OCC(OS(=O)(=O)O)C4O)C(OC4OCC(O)C(O)C4O)C3O)C2O)C1O` (stereo not drawn) [frondoside A2-3], the IC50 at 24 h [1] was > 50 µM, the IC50 ([2]; Homo sapiens, T47D, 24 h) was > 50 µM and the IC50 ([3]; Homo sapiens, MDA-MB-231, 24 h) was > 50 µM. The IC50 ([4]; Homo sapiens, MCF7, 24 h) was > 50 µM, the HC50 [5, 6] was > 50 µM and the “hemolytic activity (in words)” value ([5]; human erythrocytes) was “absence of the activity”. The “hemolytic activity (in words)” value ([5]; human erythrocytes, listed as Frondoside A2-3) was “did not show hemolytic or cytotoxic activity”.

In the case of `C=C(C)CCCC1(C)OC(=O)C23CCC4C(=CCC5C(C)(C)C(OC6OCC(OS(=O)(=O)O)C(O)C6OC6OC(CO)C(OC7OC(CO)C(O)C(OC8OC(CO)C(O)C(OC)C8O)C7O)C(O)C6OC6OCC(O)C(O)C6O)CCC45C)C2(C)CC(OC(C)=O)C13` (stereo not drawn) [okhotoside A2-1], the IC50 at 24 h [1] is reported as 12.2 ± 0.16 µM, the IC50 ([2]; Homo sapiens, T47D, 24 h) is reported as 11.9 ± 0.42 µM and the “Selectivity Index (SI), T-47D” value [2] is reported as 1.03. The IC50 ([3]; Homo sapiens, MDA-MB-231, 24 h) was 12.6 ± 0.16 µM, the “Selectivity Index (SI), MDA-MB-231” value [3] was 0.97 and the IC50 ([4]; Homo sapiens, MCF7, 24 h) was 39.81 ± 0.18 µM. For the same molecule, the “Selectivity Index (SI), MCF-7” value [4] was 0.31 and the HC50 [5, 6] was 1.53 ± 0.14 µM.

With `COC1C(O)C(COS(=O)(=O)O)OC(OC2C(O)C(COS(=O)(=O)O)OC(OC3C(C)OC(OC4C(OC5CCC6(C)C7=CCC8(C)C(C(C)=O)CCC8(C)C7CCC6C5(C)C)OCC(OS(=O)(=O)O)C4O)C(OC4OCC(O)C(O)C4O)C3O)C2O)C1O` (stereo not drawn) [isokoreoside A] the IC50 at 24 h [1] was > 50 µM, the IC50 ([2]; Homo sapiens, T47D, 24 h) was > 50 µM and the IC50 ([3]; Homo sapiens, MDA-MB-231, 24 h) was > 50 µM. The IC50 ([4]; Homo sapiens, MCF7, 24 h) was > 50 µM, the HC50 [5, 6] was 17.4 ± 0.57 µM and the “hemolytic activity (in words)” value ([5]; human erythrocytes) was “moderate hemolytic activity; also recorded: low hemolytic activity”.

In the case of `COC1C(O)C(CO)OC(OC2C(O)C(CO)OC(OC3C(CO)OC(OC4C(OC5CCC6(C)C7CCC89C(=O)OC(C)(CCC=C(C)C)C8C(OC(C)=O)CC9(C)C7=CCC6C5(C)C)OCC(OS(=O)(=O)O)C4O)C(OC4OCC(O)C(O)C4O)C3O)C2O)C1O` [djakonovioside D1, 3β-O-{3-O-methyl-β-D-glucopyranosyl-(1→3)-β-D-glucopyranosyl-(1→4)-[(1→2)-β-D-xylopyranosyl]-β-D-glucopyranosyl-(1→2)-4-O-sodium sulfate-β-D-xylopyranosyl}-16β-acetoxyholosta-7,24-dien], the IC50 at 24 h [1] is reported as > 50 µM, the IC50 ([2]; Homo sapiens, T47D, 24 h) is reported as > 50 µM and the IC50 ([3]; Homo sapiens, MDA-MB-231, 24 h) is reported as > 50 µM. For the same molecule, the IC50 ([4]; Homo sapiens, MCF7, 24 h) was > 50 µM, the HC50 [5, 6] was 7.74 ± 0.37 µM and the “hemolytic activity (in words)” value ([5]; human erythrocytes, listed as D1) was “slightly lower but significant”. For the same molecule, the “hemolytic activity (in words)” value ([5]; human erythrocytes, listed as Djakonovioside D1) was “moderate hemolytic activity; also recorded: slightly less hemolytic”.

For `COC1C(O)C(COS(=O)(=O)O)OC(OC2C(O)C(COS(=O)(=O)O)OC(OC3C(C)OC(OC4C(OC5CCC6(C)C7CCC8(C)C(C(C)(O)C(=O)CC=C(C)C)CCC8(C)C7=CCC6C5(C)C)OCC(OS(=O)(=O)O)C4O)C(OC4OCC(O)C(O)C4O)C3O)C2O)C1O` [djakonovioside F1, 3β-O-{6-O-sodium sulfate-3-O-methyl-β-D-glucopyranosyl-(1→3)-6-O-sodium sulfate-β-D-glucopyranosyl-(1→4)-[(1→2)-β-D-xylopyranosyl]-β-D-quinovopyranosyl-(1→2)-4-O-sodium sulfate-β-D-xylopyranosyl}-(20R)-hydroxy-22-oxo-lanosta-7,24-dien], the IC50 at 24 h [1] was 23.2 ± 0.78 µM, the IC50 ([2]; Homo sapiens, T47D, 24 h) was 22.5 ± 1.78 µM and the “Selectivity Index (SI), T-47D” value [2] was 1.02. For the same molecule, the IC50 ([3]; Homo sapiens, MDA-MB-231, 24 h) was 20 ± 0.63 µM, the “Selectivity Index (SI), MDA-MB-231” value [3] was 1.16 and the IC50 ([4]; Homo sapiens, MCF7, 24 h) was 36.8 ± 0.73 µM. The “Selectivity Index (SI), MCF-7” value [4] was 0.63, the HC50 ([5]; Homo sapiens, 1 h) was 0.51 ± 0.01 µM and the “hemolytic activity (in words)” value ([5]; human erythrocytes) was “high hemolytic effect”.

With `CO[C@@H]1[C@@H](O)[C@H](O[C@@H]2[C@@H](O)[C@H](O[C@H]3[C@H](O)[C@@H](O)[C@H](O[C@H]4[C@H](O[C@H]5CC[C@]6(C)[C@@H]7CCC89C(=O)O[C@@](C)(C[C@@H](O)CC(C)C)[C@H]8[C@@H](OC(C)=O)C[C@@]9(C)C7=CC[C@H]6C5(C)C)OC[C@@H](OS(=O)(=O)O)[C@@H]4O)O[C@@H]3C)OC[C@H]2O)O[C@H](CO)[C@H]1O` (stereo partly drawn) [djakonovioside A1, reference compound] the IC50 ([2]; MTT, 24 h incubation) was 15.2 ± 0.96 µM, the “Selectivity Index (SI), T-47D” value [2] was 1.15 and the IC50 ([3]; MTT, 24 h incubation) was 12.1 ± 0.54 µM. The “Selectivity Index (SI), MDA-MB-231” value [3] was 1.45, the IC50 ([4]; MTT, 24 h incubation) was 26.43 ± 0.14 µM and the “Selectivity Index (SI), MCF-7” value [4] was 0.66. The “ED50, Erythrocytes (hemolytic activity)” value [5, 6] was 2.52 ± 0.23 µM.

With `C=C(C)CCCC1(C)OC(=O)C23CCC4C(=CCC5C(C)(C)C(OC6OCC(OS(=O)(=O)O)C(O)C6OC6OCC(OC7OC(CO)C(O)C(OC8OC(CO)C(O)C(OC)C8O)C7O)C(O)C6OC6OCC(O)C(O)C6O)CCC45C)C2(C)CC(OC(C)=O)C13` (stereo not drawn) [djakonoviosides C1] the “hemolytic activity (in words)” value ([5]; human erythrocytes) was “slightly lower but significant”.

With `COC1C(O)C(COS(=O)(=O)O)OC(OC2C(O)C(COS(=O)(=O)O)OC(OC3C(C)OC(OC4C(OC5CCC6(C)C7CCC8(C)C(C(C)=O)CCC8(C)C7=CCC6C5(C)C)OCC(OS(=O)(=O)O)C4O)C(OC4OCC(O)C(O)C4O)C3O)C2O)C1O` (stereo not drawn) [koreoside A] the IC50 at 24 h [1] was > 50 µM, the IC50 ([2]; Homo sapiens, T47D, 24 h) was > 50 µM and the IC50 ([3]; Homo sapiens, MDA-MB-231, 24 h) was > 50 µM. The IC50 ([4]; Homo sapiens, MCF7, 24 h) was > 50 µM, the HC50 [5, 6] was > 50 µM and the “hemolytic activity (in words)” value ([5]; human erythrocytes) was “did not show hemolytic or cytotoxic activity; also recorded: complete loss of the activity”.
